{"source": "paper PMC4204617", "about": "(Frontiers in Cellular Neuroscience, 2014)", "key": {"hemichannels": {"tested_on": "hemichannels", "details": "cited from earlier work; for Hemichannel-only effect: ref not given", "source_text": "Gap junction channels form junctional plaques that are composed of two docked hemichannels oligomerized from six Cx protein subunits. […] Stehberg and collaborators have used TAT-L2 for local injection in the amygdala in in vivo animal studies on fear memory (Stehberg et al., [2012])."}, "[1]": {"tested_on": "Cx43 hemichannels in astrocytes", "details": "hippocampal slices; ref Rouach et al., 2008, Supplementary Data Figure S5; cited from earlier work", "protocol": "The inhibitory effect of Gap19 in situ was then tested by performing the Etd^+ uptake assay in acute hippocampal brain slices from GFAP-eGFP transgenic mice. […] This increase ... || Gap19 is a peptide that corresponds to a sequence on the cytoplasmic loop (CL) of Cx43. Its sequence is part of the L2 domain that is involved in interactions of the CL with the CT-tail of Cx43. […] This differential effect is most probably the consequence of distinct channel configurations of hemichannels as compared ..."}, "Gap19": {"target": "Gap19 (UniProt P17302)", "sequence (P17302 whole entry, looked up)": "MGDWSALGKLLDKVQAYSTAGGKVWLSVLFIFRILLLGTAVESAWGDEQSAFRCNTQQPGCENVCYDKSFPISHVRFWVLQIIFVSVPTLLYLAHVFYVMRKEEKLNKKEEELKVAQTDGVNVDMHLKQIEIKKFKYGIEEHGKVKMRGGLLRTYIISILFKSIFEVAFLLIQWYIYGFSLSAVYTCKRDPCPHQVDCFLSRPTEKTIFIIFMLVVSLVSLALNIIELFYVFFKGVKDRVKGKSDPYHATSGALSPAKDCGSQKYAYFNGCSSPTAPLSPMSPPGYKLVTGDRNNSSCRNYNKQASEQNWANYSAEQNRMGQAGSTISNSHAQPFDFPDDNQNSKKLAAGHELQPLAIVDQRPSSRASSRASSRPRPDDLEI", "details": "cited from earlier work"}, "Cx43 hemichannels [2]": {"target": "T1, Cx43 hemichannels (Mus musculus, UniProt P23242)", "T1 sequence (P23242 whole entry)": "as the sequence (P17302 whole entry, looked up) above, with D124E, I164V, K243R, S251T, A253P, A257S, Q263P, N341S, S344A, L347V counted along it", "test": "Glutamate-triggered ATP release in cultured cortical astrocytes", "assay_type": "cell-based, mouse (OF1)", "set-up": "endogenous in cells; host or cells: primary cortical astrocytes from newborn OF1 mice", "details": "primary cortical astrocyte cultures; glutamate 100 μM, 15 min; Gap19 30 min pre-incubation; n = 6 independent experiments; read-out: IC50 / half-maximal effect concentration for glutamate-triggered ATP release", "protocol": "(§1) Primary astrocyte cultures were prepared from the cortex of newborn (1–2 days) OF1 mice as described previously (Meme et al., [2006]). Briefly, cells were seeded into 100-mm diameter plastic dishes (Nunc, Roskilde, Denmark) at the density of 3 × 10^6 cells/dish in DMEM (Sigma-Aldrich, St-Louis MO, USA), supplemented with penicillin (5 U/ml), streptomycin (5 μg/ml) (Invitrogen, Carlsbad, CA, USA) and 10% FCS (Hyclone, Logan, UT, USA). The medium was changed twice a week. When cells reached confluence, around 10 days in vitro (DIV), they were harvested with trypsin-EDTA (Invitrogen). […]\n(§2) The data are expressed as mean ± s.e.m., with “n” denoting the number of independent experiments. […] In experiments where the effects of different treatments were assessed on normalized data, non-parametric ANOVA Kruskal-Wallis tests were performed. […] Unless stated otherwise, significance as compared to control condition based on the raw data (before normalization) was assessed by two-tailed Wilcoxon signed-ranked tests. […]\nWhile in vivo astrocytes express two major Cxs, Cx43 and Cx30, astrocytes in primary culture offer the advantage that only one of them is expressed, namely Cx43 (Giaume et al., [1991a]). Indeed, Cx30 is detected in astrocytes only either after 10–11 weeks of solo-culture (Kunzelmann et al., [1999]) or in 3 week-old astrocytes after 1 week of co-culture with neurons (Koulakoff et al., [2008]). […]"}, "Cx43 hemichannels [3]": {"target": "T1, Cx43 hemichannels", "test": "Etd+ uptake in cultured astrocytes treated with TNF-α/IL-1β", "assay_type": "cell-based, mouse (OF1)", "set-up": "endogenous in cells; host or cells: primary cortical astrocytes from newborn OF1 mice", "details": "astrocyte cultures, \"in the 250 μM range\", read-out: Half-maximal effect concentration, hemichannels opened with TNF-α/IL-1β", "protocol": "as §1\nHemichannel activity in cultured astrocytes was induced either by treatment with two pro-inflammatory cytokines, TNF-α and IL-1β (Retamal et al., [2007]) or by exposing the cells to a Ca^2+-free solution (Stout et al., [2002]). […] Captured images of Etd^+ uptake were analyzed with the Image J program (NIH software).\nas §2"}, "Cx43 hemichannels [4]": {"target": "T1, Cx43 hemichannels", "test": "Etd+ uptake in astrocytes of acute hippocampal slices, Ca2+-free solution", "assay_type": "cell-based, mouse (GFAP-eGFP)", "set-up": "performing the Etd^+ uptake assay in acute hippocampal brain slices from GFAP-eGFP transgenic mice; from tissue; host or cells: acute hippocampal slices of GFAP-eGFP mice (GFP-positive astrocytes)", "details": "zero extracellular Ca2+, \"in the 250 μM range\", read-out: Half-maximal effect concentration, zero extracellular Ca2+ in brain slices", "protocol": "GFAP-eGFP mice (Nolte et al., [2001]) were decapitated and their brains were rapidly removed. Hippocampi were dissected and placed in ice-cold artificial cerebrospinal fluid (ACSF) equilibrated with 95% O2–5% CO2. Transverse hippocampal slices (300–400 μm thick) were cut on a vibroslicer (Leica VT 1000S, Wetzlar, Germany) and transferred to a holding chamber where they rested on a nylon mesh, submerged in oxygenated ACSF at room temperature for a stabilization period of 45 min before recodings. The ACSF solution contained in mM: NaCl 134; KCl 2.8; NaHCO3 29; NaH2PO4 1.1; glucose 12; MgSO4 1.5; CaCl2 2.5.\nIn slices derived from GFAP-eGFP mice, astrocytes were identified by GFP fluorescence and hemichannel activity was investigated. […] In order to be sure that we were quantifying Etd^+ uptake in astrocytes, in this study hemichannel activity was only considered in GFP-positive cells. […] Fluorescence was quantified in arbitrary units (AU), Image J program (NIH software). Dye uptake intensity was evaluated as the difference (F—F0) between the fluorescence (F) from astrocytes (20—30 cells per slice) and the background fluorescence (F0) measured in the same field where no labeled cells were detected. […]\nThe data are expressed as mean ± s.e.m., with “n” denoting the number of independent experiments. […]"}, "[5]": {"test": "Brain TAT immunostaining 1 h after intra-carotid injection", "assay_type": "in vivo, mouse (C57Bl6)", "protocol": "Two different approaches were used for in vivo delivery of TAT-Gap19. For acute experiments, 4 months old C57Bl6 male mice were subjected to intra-carotid injection of 45 mg/kg TAT-Gap19 (GenScript, Pistcataway, NJ, US) dissolved in saline. After 1 h the mice were deeply anesthetized with sodium pentobarbital (120 mg/kg intraperitoneally) and were transcardially perfused with cold ice phosphate-buffered saline (PBS) followed by perfusion with 10% formalin (Sigma-Aldrich, Oakville, Canada). Brains were removed and stored in 10% formalin and the next day were cryoprotected in 30% sucrose in PBS solution. Cortical brain sections, 10 μm thick, were collected and mounted sequentially on glass microscope slides. Immunohistochemistry was performed on the sections as previously described (Ozog et al., [2002]; Nakase et al., [2004]; Kozoriz et al., [2010]). Ten μm thick glass mounted sections were rehydrated in PBS and then blocked in PBS pH 7.4 containing 0.3% Triton-X-100 (TX100, Fisher Scientific) and 2% bovine serum albumin (BSA; Invitrogen, Canada) for 1 h, and incubated overnight in PBS containing 1.0% BSA, 0.3% TX100 and anti-TAT primary antibody (1/100 dilution; Cat # CB0888, Cell Applications, Inc., USA). The following day, the slices were washed with PBS (3 × 10 min) and subsequently incubated for 1 h with secondary antibody (anti-mouse IgG tagged with Alexa 488; Molecular Probes, USA) in PBS containing 1% BSA, 0.3% TX100. Slices were then rinsed 3 times for 10 min with PBS and mounted with ProLong Gold antifade reagent with DAPI. Images were obtained using the same exposure times on a Ziess Axiophot Epifluorescent microscope, Zeiss Canada, Toronto)."}}, "note": "Entries after “also recorded” stand apart in the source; their conditions may differ. Where no end group is shown, it is not given here.", "data": [{"compound": "CC1(C)[C@@H](OC(=O)CCC(=O)O)CC[C@]2(C)[C@H]3C(=O)C=C4[C@@H]5C[C@@](C)(C(=O)O)CC[C@]5(C)CC[C@@]4(C)[C@]3(C)CC[C@@H]12", "note": "[carbenoxolone]", "values": [{"measurement": "Discrimination between gap junctions and hemichannels", "setting": "hemichannels; ref not printed at this statement (nearby: Takeuchi et al., 2011)", "value": "poorly discriminate between gap junctions and hemichannels"}, {"measurement": "Block of hemichannel activity induced by calcium-free solution", "setting": "[1]", "value": "can be inhibited by carbenoxolone in hippocampal slices; also recorded: blocks hemichannel activity induced by a calcium free solution"}]}, {"compound": "[Gd+3]", "note": "[gadolinium (Gd^3+), gadolinium]", "values": [{"measurement": "Hemichannel-only effect", "setting": "hemichannels", "value": "supposed to affect only hemichannels"}]}, {"compound": "[La+3]", "note": "[lanthanum (La^3+), lanthanum]", "values": [{"measurement": "Hemichannel-only effect", "setting": "hemichannels", "value": "supposed to affect only hemichannels"}]}, {"compound": "Connexin43 C-terminal tail (from UniProt P17302)", "values": [{"measurement": "Kd", "setting": "Gap19", "value": 2.5, "unit": "µM"}]}, {"compound": "KQIEIKKFK [Gap19, KQIEIKKFK]", "values": [{"measurement": "IC50", "setting": "Cx43 hemichannels [2]", "value": 142, "unit": "µM"}, {"measurement": "IC50", "setting": "Cx43 hemichannels [3]", "value": "~250", "unit": "µM"}, {"measurement": "IC50", "setting": "Cx43 hemichannels [4]", "value": "~250", "unit": "µM"}]}, {"compound": "YGRKKRRQRRRKQIEIKKFK [TAT-Gap19, YGRKKRRQRRR-KQIEIKKFK]", "values": [{"measurement": "TAT immunoreactivity in brain, 1 h after carotid injection", "setting": "[5]; 45 mg/kg intra-carotid, 4 months old male mice, 1 h, anti-TAT antibody, compared with vehicle (PBS)", "value": "readily detected throughout the brain; also recorded: clear TAT immunoreactivity"}, {"measurement": "TAT peptide in GFAP-positive astrocytes (double labeling anti-TAT/anti-GFAP)", "setting": "[5]; 45 mg/kg intra-carotid, 1 h, cortex", "value": "some GFAP-positive astrocytes (white arrows) have taken up the TAT peptide; also recorded: reaches GFAP-positive astrocytes, however, several TAT-positive cells are apparently not GFAP-positive"}, {"measurement": "Blood-brain barrier crossing", "setting": "[5]; in vivo injection, immunostaining for TAT moiety, intra-carotid and i.v. experiments taken together", "value": "traverses the blood-brain barrier and is retained in the cells; also recorded: can successfully cross the blood-brain barrier"}]}]}
